Data on two compounds can be found in patent US20190380999A1, “COMBINATIONS OF GENISTEIN AND BISPHOSPHONATES” (Primus Pharmaceuticals, Inc., priority 2018, published 2019).

Format in all cases: cell-based, mouse
Test [1] has as its system RAW267.4 cells. Kind of test: Cell proliferation of RAW267.4 cells (attached cell count after 3 days culture). Conditions: single agent 0.1, 1.0, 10 and 100 μM, control 0.1% ethanol vehicle, FIGS. 1A and B. As to the method: RAW267.4 cells were cultured for 3 days in Dulbecco's modification of Eagle's medium containing vehicle (0.1% ethanol), (A) alendronate, (B) genistein or (C) alendronate plus genistein. After culture, the number of attached cells on the dish was counted. Data are presented as the mean±standard deviation of two replicate wells per data set using different dishes and cell preparation. *P<0.001 vs. control group (grey bar) as determined by one-way analysis of variance and Tukey-Kramer post hoc test.
RAW267.4 cells (1×10^5/ml cells/well; 2 ml medium added per well in 24-well plates) were cultured in DMEM containing 10% FBS and 1% P/S for 3 days in a water-saturated atmosphere containing 5% CO2 and 95% air at 37° C. (23). The cells were cultured in the presence or absence of vehicle (ethanol; final concentration 0.1%), alendronate (0.1, 1, 10 or 100 μM), genistein (0.1, 1, 10 or 100 μM), or alendronate (0.1, 1, 10 or 100 μM) plus genistein (0.1, 1, 10, or 100 After culture, cells were detached from each culture dish and counted. Following trypsinization of each of culture dish using 0.2% trpysin plus 0.02% EDTA in Ca^2+/Mg^2+-free PBS for 2 min at 37° C., cells detached from the dish were collected following centrifugation at 150×g (4° C.) for 5 min (23). Cells were resuspended in PBS solution and stained with eosin. […] For each dish, the average of two counts was calculated. […]

Test [2] relates to RAW267.4 cells. In words: Cell death of confluent RAW267.4 cells (cell count after additional 2 days culture). Conditions: single agent 0.1, 1.0, 10 and 100 μM, FIGS. 2A and B. As to the method: RAW267.4 cells were cultured for 3 days in Dulbecco's modification of Eagle's medium, and then the cells were additionally cultured for 2 days in the presence or absence of (A) alendronate, (B) genistein or alendronate plus genistein. After culture, the number of attached cells on the dish was counted.
RAW267.4 cells (1×10^5/ml cells/well; 2 ml medium added per well in 24-well plates) were cultured in DMEM containing 10% FBS and 1% P/S for 3 days when confluence was reached (24). The cells were then cultured for an additional 2 days in the presence or absence of alendronate (0.1, 1, 10 or 100 μM), genistein (0.1, 1, 10 or 100 μM), or alendronate (0.1, 1, 10 or 100 μM) plus genistein (0.1, 1, 10 or 100 μM). After culture, cells were detached from each culture dish and counted as described for the cell proliferation assay.

The test system of test [3] is RAW264.7 cells. In words: Osteoclastogenesis assay, RANKL-induced, TRAP staining (TRAP-positive multinucleated cells). The note with it: RANKL 30 ng/ml, 6 days; for effect on RANKL-stimulated osteoclastic differentiation (TRAP+ multinucleated cells): FIG. 3B; for effect on RANKL-induced osteoclastic differentiation (TRAP+ multinucleated cells): FIG. 3A. As to the method:
Cells were cultured for 6 days with RANKL (30 ng/ml) pre-incubated for 10 min with crosslinking anti-poly-histidine antibody (2.5 μg/ml) in the presence or absence of vehicle (0.1% ethanol), (A) alendronate, (B) genistein or (C) alendronate plus genistein. After 6 days of culture, the cells were fixed and stained for TRAP.
RAW264.7 cells were cultured in 96-well plates in DMEM supplemented with 10% FBS and 1% P/S at a density of 1×10^4 cells/well. Cells were cultured for 6 days with RANKL (30 ng/ml) pre-incubated for 10 min with crosslinking anti-poly-histidine antibody (2.5 μg/ml; IC050P; R&D Systems, Inc., Minneapolis, Minn., USA) to induce osteoclast formation (21,22), in the presence or absence of vehicle (ethanol; final concentration 0.1%), alendronate (0.1, 1, 10 or 100 μM), genistein (0.1, 1, 10 or 100 μM), or alendronate (0.1, 1, 10 or 100 μM) plus genistein (0.1, 1, 10 or 100 μM). After 6 days of culture, the cells were fixed and stained for TRAP, a specific marker of the osteoclast phenotype, using a leukocyte acid phosphatase kit. […] TRAP-positive multinucleated cells (MNCs with at least three nuclei) were considered to be osteoclast-like cells, and the cells were counted using light microscopy (Olympus MTV-3). MNC scores are expressed as the mean±standard deviation of six cultures with two replicate wells per data set using different dishes and cell preparation.

As for `O=c1c(-c2ccc(O)cc2)coc2cc(O)cc(O)c12` [genistein, 4′,5,7-trihydroxyisoflavone], the “effect on the proliferation of RAW267.4 cells (number of attached cells) vs control” value in test [1] is reported as “did not have a significant effect”. Moreover, in test [2], the “alteration in the number of RAW267.4 cells (cell death)” value is “did not cause a significant alteration”. The “effect on RANKL-stimulated osteoclastic differentiation (TRAP+ multinucleated cells)” value in test [3] (genistein alone 0.1 and 1.0 μM) is recorded as “did not reveal an effect”; in test [3] (genistein alone 10 and 100 μM) it was “suppressed”.
As for `NCCCC(O)(P(=O)(O)O)P(=O)(O)O` [alendronate], the “effect on the proliferation of RAW267.4 cells (number of attached cells) vs control” value in test [1] is listed as “did not have a significant effect”. Besides, the “alteration in the number of RAW267.4 cells (cell death)” value in test [2] is “did not cause a significant alteration”. Moreover, the “effect on RANKL-induced osteoclastic differentiation (TRAP+ multinucleated cells)” value in test [3] (alendronate alone 100 μM) is “suppressed”; in test [3] (alendronate alone 0.1, 1.0 and 10 μM), “had no significant effect”.
